Source: patent EP1144365B1 (TANABE SEIYAKU CO., LTD., priority 1998, dated 2000)

Molecular target: T1, α4β1 integrin (Homo sapiens, UniProt P05556+P13612)
T1 construct: a T-cell line, Jurkat, known to express the α4β1 integrin; host or cells: Jurkat T-cell line
Assay: Jurkat-Endothelial Cell Adhesion Assay (Jurkat EC)
Type: cell-based
Conditions: Jurkat cell adhesion to IL-1 stimulated endothelial cell monolayers
Procedure: The following assay established the activity of the present compounds in inhibiting β1-mediated cell adhesion in a representative in vitro system. This assay measures the adhesive interactions of a T-cell line, Jurkat, known to express the α4β1 integrin, to endothelial monolayers in the presence of test compounds. The test compounds were added in increasing concentrations to T-cells and then the T-cell compound mixture was added to IL-1 stimulated endothelial cell monolayers. The plates were incubated, washed and the percentage of attached cells was quantitated.
Human umbilical vein endothelial cells were purchased from Clonetics (San Diego, CA.) at passage number 2. The cells were grown on 0.5% porcine skin gelatin pre-coated flasks (Sigma, St. Louis MO.) in EGM-UV media (Clonetics, San Diego, CA) supplemented with 10% fetal bovine serum. Cells are refed every 2-3 days reaching confluence by day 4 to 6. […] The endothelial cells are not used following passage 6.
The T-cell line Jurkat was obtained from American Type Tissue Culture Collection (Rockville, MD) and the cells were cultured in RPMI containing 10 % fetal calf serum. The cells were washed twice in Hank's Balanced Salt Solution (HBSS) and resuspended in Dulbecco's Minimal Eagle's Media (DMEM) containing 2.5 mg/ml Human Serum Albumin (HSA). Jurkat cells (1x10^6 cells/ml) were stained with 10 ng/ml BCECF-AM (Molecular Probes, Eugene, OR)) in HBSS without phenol red. The cells were loaded with BCECF for 60 minutes in the dark at 37°C, washed 2 times, and resuspended in DMEM-HSA solution.
Confluent endothelial monolayers, grown in 96-well tissue culture plates, were stimulated for 4 hr. at 37 °C with 0.1 ng/ml (∼50 U/ml) recombinant IL-1 (Amgen, Thousand Oaks, CA). Following this incubation, the monolayers were washed twice with HBSS and 0.1 ml of DMEM-HSA solution was added. Jurkat cells (5 x 10^5 cells) were combined with the appropriate concentration of the test compound and 0.1 ml of the Jurkat cell-compound mixture was added to the endothelial cell monolayers. Generally, 100, 20, 5 and 1.25 µM compound concentrations were tested. […] Following this incubation, the monolayers were washed twice with PBS containing 1 mM calcium chloride and 1 mM magnesium chloride' and the plates were read using a Millipore Cytofluor 2300 (Marlboro, MA.). Fluorescence in each well was measured as Arbitrary Fluorescence Units and percent adhesion in the absence of compound was adjusted to 100% and the % adhesion in the presence of compound was calculated. Monolayers were also fixed in 3% paraformaldehyde and evaluated microscopically to verify the adhesion. This procedure is a modification of a previously published method (Cardarelli et al., J. Biol. Chem. 269:18668-18673 (1994)).

T1 sequence (P13612 34-1032): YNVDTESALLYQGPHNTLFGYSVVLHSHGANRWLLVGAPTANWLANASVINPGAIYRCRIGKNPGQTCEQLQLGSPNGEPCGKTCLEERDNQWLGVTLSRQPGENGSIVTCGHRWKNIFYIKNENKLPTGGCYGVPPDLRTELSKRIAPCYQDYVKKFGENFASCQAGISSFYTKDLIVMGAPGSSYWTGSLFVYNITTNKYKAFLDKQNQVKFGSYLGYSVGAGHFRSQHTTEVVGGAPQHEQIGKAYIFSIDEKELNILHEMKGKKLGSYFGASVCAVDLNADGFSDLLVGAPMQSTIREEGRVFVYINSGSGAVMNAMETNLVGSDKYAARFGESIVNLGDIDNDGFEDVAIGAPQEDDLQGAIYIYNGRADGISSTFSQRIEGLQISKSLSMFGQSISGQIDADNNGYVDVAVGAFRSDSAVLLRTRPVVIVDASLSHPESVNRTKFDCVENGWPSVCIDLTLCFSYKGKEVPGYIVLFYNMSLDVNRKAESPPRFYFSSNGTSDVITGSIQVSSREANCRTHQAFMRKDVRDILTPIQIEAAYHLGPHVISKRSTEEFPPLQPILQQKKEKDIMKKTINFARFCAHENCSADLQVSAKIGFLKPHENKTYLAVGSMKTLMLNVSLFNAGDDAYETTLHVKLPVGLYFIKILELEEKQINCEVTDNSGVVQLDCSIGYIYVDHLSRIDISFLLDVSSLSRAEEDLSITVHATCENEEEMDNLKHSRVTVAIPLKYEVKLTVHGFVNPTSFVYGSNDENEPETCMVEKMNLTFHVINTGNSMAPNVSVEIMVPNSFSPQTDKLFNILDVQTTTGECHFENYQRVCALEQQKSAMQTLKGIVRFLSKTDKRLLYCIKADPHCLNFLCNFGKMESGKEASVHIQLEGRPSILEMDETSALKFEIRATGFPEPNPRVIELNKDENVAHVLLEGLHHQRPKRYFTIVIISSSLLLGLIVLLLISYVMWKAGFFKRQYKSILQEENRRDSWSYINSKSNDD
T1 sequence (P05556 21-798): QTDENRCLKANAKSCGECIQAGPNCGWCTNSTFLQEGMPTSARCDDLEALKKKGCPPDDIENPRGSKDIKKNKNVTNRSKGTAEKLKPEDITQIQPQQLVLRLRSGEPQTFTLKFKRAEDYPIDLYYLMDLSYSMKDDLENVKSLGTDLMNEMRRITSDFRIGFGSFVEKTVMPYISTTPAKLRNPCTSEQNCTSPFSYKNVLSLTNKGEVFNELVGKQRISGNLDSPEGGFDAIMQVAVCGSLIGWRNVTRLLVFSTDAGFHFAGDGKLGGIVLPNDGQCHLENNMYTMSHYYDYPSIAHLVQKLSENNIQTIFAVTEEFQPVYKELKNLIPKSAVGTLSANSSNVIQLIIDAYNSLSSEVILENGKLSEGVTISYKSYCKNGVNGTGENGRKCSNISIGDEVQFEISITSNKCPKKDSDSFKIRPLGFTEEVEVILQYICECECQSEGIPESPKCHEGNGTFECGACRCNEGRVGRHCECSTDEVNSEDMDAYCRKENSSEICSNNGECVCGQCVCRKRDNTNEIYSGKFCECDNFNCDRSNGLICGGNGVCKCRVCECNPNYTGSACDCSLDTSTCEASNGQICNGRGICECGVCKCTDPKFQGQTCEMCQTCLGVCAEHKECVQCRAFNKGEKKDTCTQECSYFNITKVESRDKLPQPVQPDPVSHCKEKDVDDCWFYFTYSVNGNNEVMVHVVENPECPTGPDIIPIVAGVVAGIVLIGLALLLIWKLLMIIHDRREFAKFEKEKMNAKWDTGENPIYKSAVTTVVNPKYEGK

Structure (SMILES) | IC50 [nM]
CC1(C)CC(C(=O)O)CC/C1=C\C(=O)N[C@@H](Cc1ccc(NC(=O)c2c(Cl)cccc2Cl)cc1)C(=O)O (stereo partly drawn) [Example 128, N-[(1E)-4-Carboxy-2,2-dimethyl-1-cyclohexylideneacetyl]-4-[(2,6-dichlorobenzoyl)amino]-L-phenylalanine] | 800 to 5000
CC(Oc1ccccc1C(=O)O)C(=O)N[C@@H](Cc1ccc(NC(=O)c2c(Cl)cccc2Cl)cc1)C(=O)O (some centres unmarked) [Example 28] | 800 to 5000
CC(=O)c1cccc(OC(C)C(=O)N[C@@H](Cc2ccc(NC(=O)c3c(Cl)cccc3Cl)cc2)C(=O)O)c1 (some centres unmarked) [Example 18] | 800 to 5000
CC(C)(Oc1cccc(C(=O)O)c1)C(=O)N[C@@H](Cc1ccc(NC(=O)c2c(Cl)cccc2Cl)cc1)C(=O)O [Example 15] | 800 to 5000
O=C(Nc1ccc(CC(NC(=O)C2CCCCC2C(=O)O)C(=O)O)cc1)c1c(Cl)cccc1Cl (centres unmarked) [Example 8] | 800 to 5000
O=C(O)c1cccc(OC(C(=O)N[C@@H](Cc2ccc(NC(=O)c3c(Cl)cccc3Cl)cc2)C(=O)O)c2ccccc2)c1 (some centres unmarked) [Example 16] | 800 to 5000
O=C(Nc1ccc(C[C@H](NC(=O)N2CCCC[C@H]2C(=O)O)C(=O)O)cc1)c1c(Cl)cccc1Cl [Example 11] | 5000 to 10000
CC(Sc1ccccc1C(=O)O)C(=O)N[C@@H](Cc1ccc(NC(=O)c2c(Cl)cccc2Cl)cc1)C(=O)O (some centres unmarked) [Example 24] | 5000 to 10000
CC(Oc1cccc(/C=C/C(=O)O)c1)C(=O)N[C@@H](Cc1ccc(NC(=O)c2c(Cl)cccc2Cl)cc1)C(=O)O (some centres unmarked) [Example 21] | 5000 to 10000
CC(Oc1cccc(C(=O)O)c1)C(=O)N[C@@H](Cc1ccc(NC(=O)c2c(Cl)cccc2Cl)cc1)C(=O)O (some centres unmarked) [Example 14] | 800 to 5000
CC(C)(Oc1cccc(/C=C/C(=O)O)c1)C(=O)N[C@@H](Cc1ccc(NC(=O)c2c(Cl)cccc2Cl)cc1)C(=O)O [Example 22] | 800 to 5000
O=C(N[C@@H](Cc1ccc(NC(=O)c2c(Cl)cccc2Cl)cc1)C(=O)O)c1ccc(O)c(CN2CCOCC2)c1 [Example 4] | 800 to 5000
O=C(N[C@@H](Cc1ccc(NC(=O)c2c(Cl)cccc2Cl)cc1)C(=O)O)c1cccc(NC(=O)c2ccccc2C(=O)O)c1 [Example 41] | 5000 to 10000
CC1=C(C(=O)O)C(C)(C)CC/C1=C\C(=O)N[C@@H](Cc1ccc(NC(=O)c2c(Cl)cccc2Cl)cc1)C(=O)O [Example 121, N-[(1E)-3-Carboxy-2,4,4-trimethyl-2-cyclohexen-1-ylideneacetyl]-4-[(2,6-dichlorobenzoyl)amino]-L-phenylalanine] | 800 to 5000

Next, values leading:

IC50 [nM] | Structure (SMILES)
800 to 5000 | CC(C)(CC(=O)O)CC(=O)NC1(C(=O)N[C@@H](Cc2ccc(NC(=O)c3c(Cl)cccc3Cl)cc2)C(=O)O)CCCCC1 [Example 48]
800 to 5000 | O=C(NC1(C(=O)N[C@@H](Cc2ccc(NC(=O)c3c(Cl)cccc3Cl)cc2)C(=O)O)CC2CCC1C2)c1cc(C(=O)O)[nH]n1 (some centres unmarked) [Example 74]
800 to 5000 | O=C(Nc1ccc(C[C@H](NC(=O)C2(NC(=O)C3CCCC(C(=O)O)C3)CCCCC2)C(=O)O)cc1)c1c(Cl)cccc1Cl (some centres unmarked) [Example 52]
800 to 5000 | O=C(Nc1ccc(C[C@H](NC(=O)N2CCC(C(=O)O)CC2)C(=O)O)cc1)c1c(Cl)cccc1Cl [Example 113, 1-[[[(1S)-1-carboxy-2-[4-[(2,6-dichlorobenzoyl)amino]phenyl]ethyl]amino]carbonyl]-4-piperidinecarboxylic acid]
5000 to 10000 | O=C(/C=C1/CCCc2c(C(=O)O)cccc21)N[C@@H](Cc1ccc(NC(=O)c2c(Cl)cccc2Cl)cc1)C(=O)O [Example 137, N-[(1Z)-5-Carboxy-3,4-dihydro-1(2H)-naphthalenylideneacetyl]-4-[(2,6-dichlorobenzoyl)amino] -L-phenylalanine]
800 to 5000 | CC1(C)[C@@H](C(=O)N[C@@H](Cc2ccc(NC(=O)c3ccc(Cl)nc3Cl)cc2)C(=O)O)C[C@H]1C(=O)O [Example 108, (1S-cis)-N-[(3-Carboxy-2,2-dimethylcyclobutyl)carbonyl] -4-[[(2,6-dichloro-3-pyridinyl)carbonyl]amino]-L-phenylalanine]
800 to 5000 | CC(O)[C@@H]1C[C@H](CC(=O)N[C@@H](Cc2ccc(NC(=O)c3c(Cl)cccc3Cl)cc2)C(=O)O)C1(C)C (stereo partly drawn) [Example 92, [1R-(1α,3α)]-4-[(2,6-Dichlorobenzoyl)amino]-N-[[3-(1-hydroxyethyl)-2,2-dimethylcyclobutyl]acetyl]-L-phenylalanine]
5000 to 10000 | CC1(C)[C@H](CC(=O)N[C@@H](Cc2ccc(NC(=O)c3c(Cl)cccc3Cl)cc2)C(=O)O)C[C@@H]1C(=O)O [Example 90, (1S-cis)-N-[(3-Carboxy-2,2-dimethylcyclobutyl)acetyl]-4-[(2,6-dichlorobenzoyl)amino]-L-phenylalanine]
800 to 5000 | CC1(C)[C@@H](C(=O)N[C@@H](Cc2ccc(OCc3c(Cl)cccc3Cl)cn2)C(=O)O)C[C@H]1C(=O)O (relative stereo) [Example 109, [1S-[1α(R*),3α]]-α-[[(3-Carboxy-2,2-dimethylcyclobutyl)carbonyl]amino]-3-[(2,6-dichlorophenyl)methoxy]-6-pyridinepropanoic acid]

Molecular target: T2, α4β1 (Homo sapiens, UniProt P05556+P13612)
T2 construct: 100 µl of Jurkat cells (2.5 x 10^6 cells/ml) in DMEM plus BSA; host or cells: Jurkat T-cell line
Assay: Jurkat-CS-1 assay
Type: cell-based
Conditions: Jurkat cell adhesion to immobilized CS-1 derived peptide
Procedure: The CS-1 derived peptide, CLHPGEILDVPST, and the scrambled control peptide, CLHGPIELVSDPT, were synthesized on a Beckman 990 synthesizer using t-Boc methodology. The peptides were immobilized onto microtiter plates using the heterobifunctional crosslinker 3-(2-pyridyldithio)propionic acid N-hydroxysuccinimide ester (SPDP) as reported by Pierschbacher et al., Proc. Natl. Acad. USA, 80:1224-1227 (1983). Microtiter plates were coated with 20 µg/ml HSA for 2 hr. at room temperature, washed once with PBS and derivatized with 10 µg/ml SPDP for 1 hr. After washing, 100 µl of a 100 µg/ml cysteine containing peptide solution which had been recently dissolved was added to the wells and allowed to crosslink to the plates overnight at 4 °C. Unbound peptide was removed from plates by washing with PBS. To block non-reacted sites, the plates are coated with 100 µl of a 2.5 mg/ml BSA solution in PBS for 1 hr. at 37 °C. 100 µl of Jurkat cells (2.5 x 10^6 cells/ml) in DMEM plus BSA (2.5 mg/ml) was mixed with an appropriate concentration of the compound to be tested and the mixture was added to peptide coated dishes and incubated for 1 hr. at 37 °C. Generally 100, 20, 5 and 1.25 µM concentrations of the compound were tested.
Following this incubation the plates were washed once with PBS and the attached cells were fixed with 3% paraformaldehyde in PBS and stained with 0.5% toluidine blue in 3.7% formaldehyde. The cells were stained overnight at room temperature and the optical density at 590 nm of toluidine blue stained cells was determined using a vertical pathway spectrophotometer to quantitate attachment (VMAX Kinetic Microplate Reader, Molecular Devices, Menlo Park, CA). This procedure is a modification of a previously published method (Cardarelli et al, J. Biol. Chem., 269:18668-18673 (1994) and Cardarelli et al, Proc. Natl. Acad. Sci. USA, 83:2647-2651 (1986)).

T2 sequence (P13612 34-1032): as the sequence (P13612 34-1032) above
T2 sequence (P05556 21-798): as the sequence (P05556 21-798) above

Structure (SMILES) | IC50 [nM]
CC1(C)CC(C(=O)O)CC/C1=C\C(=O)N[C@@H](Cc1ccc(NC(=O)c2c(Cl)cccc2Cl)cc1)C(=O)O (stereo partly drawn) [Example 128, N-[(1E)-4-Carboxy-2,2-dimethyl-1-cyclohexylideneacetyl]-4-[(2,6-dichlorobenzoyl)amino]-L-phenylalanine] | 80 to 500
CC(=O)CCC(=O)Nc1cccc(C(=O)N[C@@H](Cc2ccc(NC(=O)c3c(Cl)cccc3Cl)cc2)C(=O)O)c1 [Example 39] | 500 to 1000
O=C(O)CNC(=O)Nc1cccc(C(=O)N[C@@H](Cc2ccc(NC(=O)c3c(Cl)cccc3Cl)cc2)C(=O)O)c1 [Example 33, N-[3-[(N'-Carboxymethyl)ureido]benzoyl]-4-[(2,6-dichlorobenzoyl)amino]-L-phenylalanine] | 80 to 500
O=C(O)CCC(=O)Nc1cccc(C(=O)N[C@@H](Cc2ccc(NC(=O)c3c(Cl)cccc3Cl)cc2)C(=O)O)c1 [Example 34] | 500 to 1000
O=C(COc1ccc(C(=O)O)cc1)N[C@@H](Cc1ccc(NC(=O)c2c(Cl)cccc2Cl)cc1)C(=O)O [Example 12, N-[(4-carboxyphenoxy)acetyl]-4-[(2,6-dichlorobenzoyl)amino]-L-phenylalanine] | 500 to 1000

Second part, the compound after the results:

IC50 [nM] | Structure (SMILES)
80 to 500 | CC(C)(CC(=O)O)CC(=O)NC1(C(=O)N[C@@H](Cc2ccc(NC(=O)c3c(Cl)cccc3Cl)cc2)C(=O)O)CCCCC1 [Example 48]
80 to 500 | O=C(NC1(C(=O)N[C@@H](Cc2ccc(NC(=O)c3c(Cl)cccc3Cl)cc2)C(=O)O)CC2CCC1C2)c1cc(C(=O)O)[nH]n1 (some centres unmarked) [Example 74]
≤ 80 | O=C(Nc1ccc(C[C@H](NC(=O)C2(NC(=O)C3CCCC(C(=O)O)C3)CCCCC2)C(=O)O)cc1)c1c(Cl)cccc1Cl (some centres unmarked) [Example 52]
500 to 1000 | O=C(Nc1ccc(C(=O)O)cc1)NC1(C(=O)N[C@@H](Cc2ccc(NC(=O)c3c(Cl)cccc3Cl)cc2)C(=O)O)CCCCC1 [Example 60]
500 to 1000 | O=C(O)c1cccc(C(=O)Nc2cccc(C(=O)N[C@@H](Cc3ccc(NC(=O)c4c(Cl)cccc4Cl)cc3)C(=O)O)c2)c1 [Example 42]
500 to 1000 | CC1(C)[C@@H](C(=O)N[C@@H](Cc2ccc(OCc3c(Cl)cccc3Cl)cc2)C(=O)O)C[C@H]1C(=O)O [Example 95, (1S-cis)-N-[(3-Carboxy-2,2-dimethylcyclobutyl)carbonyl]-4-[(2,6-dichlorophenyl)methoxy]-L-phenylalanine]
500 to 1000 | O=C(O)CNC(=O)NC1(C(=O)N[C@@H](Cc2ccc(NC(=O)c3c(Cl)cccc3Cl)cc2)C(=O)O)CCCCC1 [Example 54]
